Among the test systems are MDA-N; Malme-3M; M14; A498; SN12C; Hs-578T; 786-0; HCT-116; NCI-H226; SNB-75; NCI-H522; HT-29; M19-MEL; HOP-62; SW-620; COLO 205; SK-MEL-28; SF-539; BT-549; NCI-H23.
Assay in all cases: inhibition of tumour cell growth, NCI panel, 48 h

Molecules are shown by their SMILES.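 The compound was tested at five concentrations on cells cultured in 96-well plates, with a 48-hour exposure period. Here, GI50 denotes the concentration required for 50% inhibition of growth.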 Active and inactive are the calls of the source. Cut-off read from the data, not from the text of the source: active = GI50 up to about 1.1 µM and inactive = higher.

Regarding `C=C1C(=O)OC2/C=C(CO)/C=C\C3OC3(C)CC(OC(=O)/C(C)=C/COC(C)=O)C12` (stereo not given), the GI50 with MDA-N was 1750 nM (inactive); with Malme-3M, 1770 nM (inactive); in the assay with M14, 2300 nM (inactive); in the assay with A498 it was 7430 nM (inactive); with SN12C, 2210 nM (inactive); in the assay on Hs-578T, 3080 nM (inactive). Moreover, the GI50 with 786-0 is 1970 nM (inactive); with HCT-116, 1500 nM (inactive); in the assay with NCI-H226, 12200 nM (inactive); with SNB-75, 7800 nM (inactive); in the assay with NCI-H522, 692 nM (active); in the assay with HT-29, 2520 nM (inactive). Further, the GI50 with M19-MEL was 1840 nM (inactive); in the assay on HOP-62 it was 20000 nM (inactive); in the assay with SW-620 it was 1370 nM (inactive); in the assay with COLO 205, 1600 nM (inactive); in the assay with SK-MEL-28, 1730 nM (inactive); in the assay with SF-539, 1960 nM (inactive). Further, the GI50 in the assay with BT-549 is 1570 nM (inactive); in the assay with NCI-H23, 3080 nM (inactive).
For `O=c1c2ccccc2n2cnc3ccc(NCCNCCO)c1c32`, the GI50 was 1900 nM (inactive) with MDA-N; 2360 nM (inactive) in the assay with Malme-3M; 2710 nM (inactive) in the assay on M14; 1710 nM (inactive) with A498; 1510 nM (inactive) with SN12C; 2370 nM (inactive) with Hs-578T. For the same molecule, the GI50 in the assay on 786-0 was 889 nM (active); in the assay with HCT-116 it was 798 nM (active); with NCI-H226, 1290 nM (inactive); in the assay on SNB-75 it was 1860 nM (inactive); with NCI-H522 it was 1490 nM (inactive); in the assay with HT-29 it was 1060 nM (active). In addition, the GI50 in the assay on M19-MEL was 2960 nM (inactive); in the assay with HOP-62, 1400 nM (inactive); in the assay on SW-620 it was 589 nM (active); in the assay with COLO 205 it was 834 nM (active); in the assay on SK-MEL-28 it was 3180 nM (inactive); in the assay on SF-539, 3240 nM (inactive). Also, the GI50 with BT-549 was 3660 nM (inactive); in the assay with NCI-H23, 2160 nM (inactive).

The record behind these values is ChEMBL document CHEMBL1201862, “PubChem BioAssay data set” (2004).
